In patent US20200009088A1, “COMPOSITIONS AND METHODS FOR TREATING ANDROGEN-INDEPENDENT CANCER” (The Regents of the University of California, priority 2017, published 2020):
Entries after “also recorded” stand apart in the source; their conditions may differ.

How the values were obtained:
CWR22Rv1 cells = assay: Cell growth assay (cell numbers), CWR22Rv1; type: cell-based; details: for synergy with abiraterone in inhibiting cell growth: CWR22Rv1, analog 0.25 μM + abiraterone 5 μM; for cell growth, combination with abiraterone: CWR22Rv1, analog 0.25 μM + abiraterone 5 μM, 0, 3, 5 days; for cell growth, combination with abiraterone / cell growth, combination with enzalutamide: FIGS. 9, 11; for cell growth, combination with bicalutamide: CWR22Rv1, analog 0.25 μM + bicalutamide 20 μM, 0, 3, 5 days; for synergy with enzalutamide in inhibiting cell growth: CWR22Rv1, analog 0.25 μM + enzalutamide 20 μM; for cell growth, combination with enzalutamide: CWR22Rv1, analog 0.25 μM + enzalutamide 20 μM, 0, 3, 5 days; for cell growth, niclosamide analog alone: CWR22Rv1, analog 0.25 μM, 0, 3, 5 days, FIGS. 9, 11, 12
Description: DMSO treatment was used as a negative control. Total cell numbers were counted at 0, 3, and 5 days.
DMSO treatment was used as a negative control. Total cell numbers were counted at 0, 3, and 5 days. […]
The cell growth was determined at 3,5 days. […] The cell growth was determined at 3,5 days.

PSA = PSA protein expression by ELISA in C4-2 cells overexpressing AR-V7; type: cell-based; details: C4-2-V7 cells, FIG. 3; for PSA expression: compound alone, ELISA; for enzalutamide-mediated PSA inhibition: in presence of enzalutamide (MDV)
Description: PSA protein expression was determined by ELISA assay. * denotes p<0.05.

V716M AR mutant = molecular target: T1, V716M AR mutant (Homo sapiens, UniProt P10275, V716M); assay: AR transactivation luciferase assay in HEK 293 cells, V716M; type: cell-based; details: luciferase reporter, FIG. 5E
T1 construct: expressed in transfected cells; host or cells: HEK 293
Description: (§1) HEK 293 cells were transiently transfected with expression vectors encoding the corresponding mutant AR and an androgen-responsive luciferase reporter gene construct. […] Luciferase activity was then determined.

AR-V9 = molecular target: T2, AR-V9 (Homo sapiens, UniProt P10275, DEL470-473/INS56QQQQQ/L57Q); assay: PSA-luc assay in C4-2B cells, AR-V9; type: cell-based; details: FBS, 1 μM overnight, FIG. 14E
T2 construct: expressed in transfected cells; host or cells: C4-2B
Description: C4-2B cells were cotransfected with pcDNA, with or without AR-V1, AR-V3, AR-V7, AR-V9 or AR-V12, and with PSA-E/P-luciferase plasmids in FBS condition.

C4-2B MDVR cells = assay: Cell growth assay (cell numbers), C4-2B MDVR; type: cell-based; details: for cell proliferation, combination with enzalutamide (MDV) / cell growth: C4-2B MDVR, 48 hours; for cell proliferation, combination with enzalutamide (MDV): 0.5 μM + enzalutamide, FIG. 7B; for cell growth: increasing doses of niclosamide/analogs, FIG. 6
C4-2-V7 cells = assay: Cell growth assay (cell numbers), C4-2-V7; type: cell-based; details: C4-2-V7, 0.5 μM + enzalutamide, 48 hours, FIG. 7D
T878A AR mutant = molecular target: T3, T878A AR mutant (Homo sapiens, UniProt P10275, T878A); assay: AR transactivation luciferase assay in HEK 293 cells, T878A; type: cell-based; details: luciferase reporter, FIG. 5C
T3 construct: expressed in transfected cells; host or cells: HEK 293
Description: as §1

AR-V7 [1] = molecular target: T4, AR-V7 (Homo sapiens, UniProt P10275); assay: Western blot of AR-V7 expression in CWR22Rv1 cell lysates; type: cell-based; set-up: endogenous in cells; host or cells: CWR22Rv1 prostate cancer cells (also grown as xenograft tumours); details: CWR22Rv1 cells, FIG. 2A
T4 sequence (P10275 1-644 isoform P10275-3): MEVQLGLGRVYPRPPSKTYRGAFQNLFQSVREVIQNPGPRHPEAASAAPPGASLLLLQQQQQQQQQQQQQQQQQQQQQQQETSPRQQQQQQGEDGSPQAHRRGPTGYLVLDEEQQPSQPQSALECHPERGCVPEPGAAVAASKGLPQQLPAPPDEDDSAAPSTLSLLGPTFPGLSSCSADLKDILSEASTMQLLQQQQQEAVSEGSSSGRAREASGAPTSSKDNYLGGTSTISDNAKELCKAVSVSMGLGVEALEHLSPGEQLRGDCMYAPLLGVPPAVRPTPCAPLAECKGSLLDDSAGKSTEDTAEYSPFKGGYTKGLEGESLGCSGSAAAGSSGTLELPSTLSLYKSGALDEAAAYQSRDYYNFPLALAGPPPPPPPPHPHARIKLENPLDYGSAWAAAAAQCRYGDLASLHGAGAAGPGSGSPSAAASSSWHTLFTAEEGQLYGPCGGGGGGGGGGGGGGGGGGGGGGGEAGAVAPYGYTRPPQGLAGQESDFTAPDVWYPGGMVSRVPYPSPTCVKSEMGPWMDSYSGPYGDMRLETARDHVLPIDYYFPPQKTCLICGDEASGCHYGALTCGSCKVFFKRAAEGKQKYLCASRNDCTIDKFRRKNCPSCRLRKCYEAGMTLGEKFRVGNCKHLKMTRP
Description: (§2) “AR-Variants” represents a combination of all forms of AR.
The effects of the synthetic small molecule modulators on AR and AR variant expression were determined. CWR22Ry1 prostate cancer cells were treated with different compounds. Protein lysates were analyzed for AR and AR variant expression.

AR-V7 [2] = molecular target: T4, AR-V7; assay: PSA-luc reporter in LNCaP cells co-transfected with AR-V7; details: LNCaP cells co-transfected with AR-V7, FIG. 4
Description: The luciferase activity was then determined. * denotes p<0.05.
In addition, the effects on AR transcriptional activity were determined using PSA-luc as a reporter. LNCaP cells were cotransfected with PSA-luc together with or without AR-V7, and treated with the compounds.

AR variants [3] = assay: AR variant protein degradation (cycloheximide, MG132, ubiquitin IP) in C4-2B MDVR cells; type: cell-based; details: FIG. 16
Description: as §2
(§3) To determine if the small molecule modulators affect AR-V7 protein expression via protein degradation, CWR22Rv1 and C4-2B MDVR cells were treated with cycloheximide (CHX) and the half-life of AR-V7 protein was measured.
After 0, 2, 4, and 8 hours, whole cell lysate was collected and subjected to Western blot. Half-life of AR-V7 was then calculated.
Whole cell lysate was subsequently collected and subjected to Western blot.
Whole cell lysate was immunoprecipitated with an AR antibody and blot with ubiquitin and AR antibodies.

L702H AR mutant = molecular target: T5, L702H AR mutant (Homo sapiens, UniProt P10275, L702H); assay: AR transactivation luciferase assay in HEK 293 cells, L702H; type: cell-based; details: luciferase reporter, FIG. 5F
T5 construct: expressed in transfected cells; host or cells: HEK 293
Description: as §1

in vivo = details: male, Sprague-Dawley, rat, in vivo, po, 200 mg/kg
Description: Blood samples were obtained at the time points indicated in FIG. 18 (0 minutes, 15 minutes, 30 minutes, 1 hour, 1.5 hours, 2 hours, 4 hours, 6 hours, 8 hours, and 24 hours) and the plasma was isolated for LC-MS analysis.

AR variants [4] = assay: AR variant protein degradation (cycloheximide, MG132, ubiquitin IP) in CWR22Rv1 cells; type: cell-based; details: FIG. 15
Description: as §2, §3
After 0, 2, 4, and 8 hours, whole cell lysate was collected and subjected to Western blot. The half-life of AR-V7 was then calculated.
Subsequently, the whole cell lysate was collected and subjected to Western blot.
For the data shown in FIG. 15C, CWR22Rv1 cells were treated with Nic, Compound 7, or Compound 31. Subsequently, whole cell lysate was immunoprecipitated with an AR antibody and blotted with ubiquitin and AR antibodies.

MDA-MB-468 cells = assay: Breast cancer cell growth, MDA-MB-468; type: cell-based; details: three days, FIG. 20A

O=C(Nc1ccc(C(F)(F)F)cc1Cl)c1cc(Cl)ccc1O [Compound 7]
enhancement of abiraterone treatment (cell growth) (CWR22Rv1 cells; CWR22Rv1, 0.5 μM Compound 7 + 5 μM abiraterone, 3,5 days, FIG. 17B): significantly enhanced
enhancement of apalutamide treatment (cell growth) (CWR22Rv1 cells; CWR22Rv1, 0.5 μM Compound 7 + 20 μM apalutamide, 3,5 days, FIG. 17A): significantly enhanced
synergy with abiraterone in inhibiting cell growth (CWR22Rv1 cells): able to synergize
cell growth, combination with abiraterone (CWR22Rv1 cells): able to significantly inhibit
cell growth, combination with bicalutamide (CWR22Rv1 cells; FIG. 12): able to significantly inhibit
synergy with enzalutamide in inhibiting cell growth (CWR22Rv1 cells): able to synergize
cell growth, combination with enzalutamide (CWR22Rv1 cells): able to significantly inhibit
cell growth, niclosamide analog alone (CWR22Rv1 cells): None of Compounds 1, 7, 30, 31, or 34 alone were able to inhibit
PSA expression (PSA): inhibited
enzalutamide-mediated PSA inhibition (PSA): further enhanced
V716M mutant AR transactivation (V716M AR mutant): significantly blocked
AR-V9-mediated PSA-luc activity (AR-V9): inhibited
cell proliferation, combination with enzalutamide (MDV) (C4-2B MDVR cells): further inhibited
cell growth (C4-2B MDVR cells): able to inhibit cell growth in a dose-dependent manner
cell proliferation, combination with enzalutamide (MDV) (C4-2-V7 cells): further inhibited
T878A mutant AR transactivation (T878A AR mutant): significantly blocked
AR-V7 (AR variant) expression (AR-V7 [1]): inhibited
AR-V7 mediated PSA-luc activity (AR-V7 [2]): inhibited
AR variant degradation via the proteasome-ubiquitination system (AR variants [3]): degraded
L702H mutant AR transactivation (L702H AR mutant): significantly blocked
AUC(0-inf) (in vivo): 4.28 µM·h
AUC_% Extrap_obs (in vivo): 15.35 +/− 3.08%
HL_Lambda_z (in vivo): 580.54 ± 86.4 min
AR variant degradation via the proteasome-ubiquitination system (AR variants [4]): degraded
breast cancer cell growth (MDA-MB-468 cells): inhibited

C=CC(=O)Oc1ccc(Cl)cc1C(=O)Nc1ccc([N+](=O)[O-])cc1Cl [Compound 31]
synergy with abiraterone in inhibiting cell growth (CWR22Rv1 cells): able to synergize
cell growth, combination with abiraterone (CWR22Rv1 cells): significantly inhibited
cell growth, combination with bicalutamide (CWR22Rv1 cells; FIG. 12): able to significantly inhibit
synergy with bicalutamide in inhibiting cell growth (CWR22Rv1 cells; CWR22Rv1, analog 0.25 μM + bicalutamide 20 μM, FIG. 12): able to synergize
synergy with enzalutamide in inhibiting cell growth (CWR22Rv1 cells): able to synergize
cell growth, combination with enzalutamide (CWR22Rv1 cells): significantly inhibited
cell growth, niclosamide analog alone (CWR22Rv1 cells): None of Compounds 1, 7, 30, 31, or 34 alone were able to inhibit
PSA expression (PSA): inhibited; also recorded: strongest effect
enzalutamide-mediated PSA inhibition (PSA): further enhanced
V716M mutant AR transactivation (V716M AR mutant): significantly blocked
AR-V9-mediated PSA-luc activity (AR-V9): inhibited
cell proliferation, combination with enzalutamide (MDV) (C4-2B MDVR cells): further inhibited
cell growth (C4-2B MDVR cells): able to inhibit cell growth in a dose-dependent manner
synergy with abiraterone in inhibiting cell growth (C4-2B MDVR cells; C4-2BMDVR, analog 0.25 μM + abiraterone 5 μM, FIG. 10): able to synergize
synergy with enzalutamide in inhibiting cell growth (C4-2B MDVR cells; C4-2BMDVR, analog 0.25 μM + enzalutamide 20 μM, FIG. 10): able to synergize
cell proliferation, combination with enzalutamide (MDV) (C4-2-V7 cells): further inhibited
T878A mutant AR transactivation (T878A AR mutant): significantly blocked
AR-V7 (AR variant) expression (AR-V7 [1]): inhibited
AR-V7 mediated PSA-luc activity (AR-V7 [2]): inhibited
AR variant degradation via the proteasome-ubiquitination system (AR variants [3]): degraded
L702H mutant AR transactivation (L702H AR mutant): significantly blocked
AUC(0-inf) (in vivo): 6.48 µM·h
AUC(0-t) (in vivo): 6.37 µM·h
AUC_% Extrap_obs (in vivo): 2.3 +/− 1.85%
Cmax (in vivo): 2690 nM
HL_Lambda_z (in vivo): 276.51 ± 92.17 min
Tmax (in vivo): 25 min
Cmax (in vivo; Cmax): 2680 nM
AR variant degradation via the proteasome-ubiquitination system (AR variants [4]): degraded
breast cancer cell growth (MDA-MB-468 cells): inhibited
